Source: publication PMC8621857, “Structural Insights into the Azole Resistance of the Candida albicans Darlington Strain Using Saccharomyces cerevisiae Lanosterol 14α-Demethylase as a Surrogate” (Journal of Fungi, 2021)
Where two headings read alike, the source gives them in different places.

Tests used:
[1] = tested on: S. cerevisiae strain AD3Δ ScErg11 (AD3Δ) overexpressing wild-type ScLDM6×His; experiment: Broth microdilution drug susceptibility assay (MIC80), strain AD3Δ ScErg11; assay type: cell-based, Saccharomyces cerevisiae; details: strain AD3Δ; for MIC80: Saccharomyces cerevisiae, 48 h, 30 °C, pH 6.8, mean (± SEM), n = 3, read-out: MIC80; for MIC80/Relative Amount of ScLDM6×His: relative expression 1
Method: (§1) The native ScERG11 gene in yeast cells containing mutant ScERG11-6×His constructs in the PDR5 locus was disrupted by homologous recombination with a cassette encoding the His1 selection marker and sequences homologous with the regions bordering the endogenous ScERG11 ORF to create strains AD3Δ ScErg11 Y140H, AD3Δ ScErg11 I471T and AD3Δ ScErg11Y140H I471T [43]. Transformants were selected on SD-His agar plates incubated at 30 °C for 48–72 h. Genomic DNA was extracted, and DNA sequencing as above was used to confirm deletion of the native ERG11. Strain AD3Δ ScErg11 (denoted as AD3Δ), which overexpresses wild-type ScLDM6×His from the PDR5 locus and has the native ScERG11 gene disrupted, was used as a control strain [43].
(§2) Azole susceptibility was measured as the mean drug concentration required to inhibit 80% of yeast growth (MIC80) compared to a non-drug control, using a standard broth microdilution assay. Serial dilutions of short- (FLC and VCZ), medium- (VT-1161), and long-tailed (ITC and PCZ) azole drugs, and the control drugs micafungin (MCF) and amphotericin B (AMB), were prepared in a 96-well microtiter plate in complete synthetic media lacking uracil, buffered to pH 6.8 [34]. Control and test cells were seeded at an optical density of 600 nm (OD600) of 0.005 (~1.5 × 10^4 colony forming units). After incubation for 48 h at 30 °C with constant agitation (200 rpm), the OD600 nm of each well was measured using a Synergy 2 multi-mode plate reader (BioTek Instruments, Winooski, VT, USA). The experiment was repeated three times (a total of nine measurements for the response of each strain to each drug). GraphPad Prism 5.0 software was used for statistical analysis, using a one-way analysis of variance with a Bonferroni post-hoc test. The statistical significance of comparisons was accepted when p < 0.05.

[2] = target: wild-type and Y140F/H mutants of ScLDM6×His; parameters: method as in earlier work; details: no significant differences, ref 5 (supplement; Sagatova et al. 2016); cited from earlier work
[3] = target: T1, wild-type (AD3Δ) ScLDM6×His (Saccharomyces cerevisiae, UniProt P10614); experiment: Type II azole binding to affinity purified wild-type ScLDM6×His; details: for ΔAmax: type II binding
T1 construct: recombinant full-length C-terminal hexahistidine-tagged wild-type Saccharomyces cerevisiae LDM (ScLDM6×His); 6×His (hexahistidine) (C); made in house; host or cells: Saccharomyces cerevisiae strain AD3Δ ScErg11 (overexpression from the PDR5 locus, native ERG11 disrupted)
T1 sequence (P10614 whole entry, stated change not applied): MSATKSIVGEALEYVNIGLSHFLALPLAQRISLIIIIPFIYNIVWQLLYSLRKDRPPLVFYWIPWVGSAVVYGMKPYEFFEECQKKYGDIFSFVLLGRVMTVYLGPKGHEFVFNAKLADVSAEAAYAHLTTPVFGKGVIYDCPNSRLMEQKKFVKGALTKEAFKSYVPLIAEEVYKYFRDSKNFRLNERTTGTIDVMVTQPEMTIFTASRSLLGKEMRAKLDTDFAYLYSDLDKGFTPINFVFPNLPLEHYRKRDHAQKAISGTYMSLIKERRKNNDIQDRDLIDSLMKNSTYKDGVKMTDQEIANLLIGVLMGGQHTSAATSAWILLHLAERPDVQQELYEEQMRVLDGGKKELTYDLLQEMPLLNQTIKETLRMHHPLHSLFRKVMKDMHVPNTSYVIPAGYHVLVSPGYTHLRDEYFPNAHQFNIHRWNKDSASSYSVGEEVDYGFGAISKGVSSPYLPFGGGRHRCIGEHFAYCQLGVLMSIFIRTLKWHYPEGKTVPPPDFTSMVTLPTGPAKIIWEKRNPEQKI
Method: Protein purification was carried out using established methods. In brief, a 12 L culture for each control and test strain was grown overnight in 1 L volumes of YPD medium (1% [w/v] yeast extract [BD Difco], 2% [w/v] peptone [BD Difco], and 2% [w/v] D-glucose) in baffled 3 L flasks at 30 °C, with constant agitation (140 rpm). Cells harvested by centrifugation were broken by bead-beating and crude membrane fractions obtained by differential centrifugation, as previously described. The protein concentration of the crude membranes was estimated using the Lowry assay, with bovine serum albumin (Thermo Fisher) used as the protein standard. The crude membranes (1 g at 2.5 mg/mL) were detergent-solubilized using 10× critical micelle concentration (CMC) n-decyl-β-D-maltoside (DM) (Anatrace, Maumee, OH, USA) in buffer containing 10% (w/v) glycerol, 250 mM NaCl, 20 mM Tris pH 7.5, 0.5 mM phenylmethanesulfonyl fluoride (PMSF), and 1 EDTA-free protease inhibitor pill (Roche, Basel, Switzerland) per 300 mL. When the protein was to be used to assess in vitro binding affinity for the test azoles, detergent solubilized ScLDM6×His recovered after centrifugation was affinity purified using a nickel-nitrilotriacetic acid (Ni-NTA)-agarose matrix (Qiagen). The bound ScLDM6×His was eluted from the matrix using an affinity purification buffer containing 50 mM L-histidine. The L-histidine was removed by washing the enzyme through centrifugal filtration, using a 50 kDa molecular-weight cut-off Amicon Ultra-4 filter (Sigma, Auckland, New Zealand).
The concentration of functional ScLDM6×His purified by the nickel affinity method was quantitated using the standard carbon monoxide (CO) binding method. Type II drug binding assays that measure absorbance changes due to ligand interactions with ScLDM6×His were performed for VCZ and ITC, using an established protocol. The peak429nm-trough410nm difference spectra plotted against azole concentration were used to generate drug binding curves. All calculations were performed using GraphPad Prism 5 Software.

[4] = tested on: C. albicans strain SC5314; experiment: Agarose disk diffusion assay, control strain SC5314; assay type: cell-based, Candida albicans; details: for effect of Cdr1p inhibitor RC21v3 on azole susceptibility: SC5314, RC21v3 at 6 µM in the assay medium
Method: (§3) Agarose diffusion assays were carried out as described previously using the Darlington strain of C. albicans (Pfizer Ltd., Sandwich, UK) and the control C. albicans database strain SC5314, which is not resistant to azoles. The Cdr1p-specific inhibitor RC21v3 and the CaMdr1p-specific inhibitor MCC1189 (MicroCombiChem, Wiesbaden, Germany), included in the assay medium at 6 µM, were used to investigate the contribution of efflux pumps to azole resistance in the Darlington strain [49, 50, 51].

[5] = tested on: C. albicans Darlington strain; experiment: Agarose disk diffusion assay, Darlington strain; assay type: cell-based, Candida albicans; details: for effect of Mdr1 inhibitor MCC1189 on azole susceptibility: MCC1189 at 6 µM in the assay medium; for effect of Cdr1p inhibitor RC21v3 on azole susceptibility: RC21v3 at 6 µM in the assay medium; for agarose diffusion susceptibility: no efflux pump inhibitor
Method: as §3

[6] = tested on: S. cerevisiae strain AD3Δ ScErg11 Y140H expressing ScLDM6×His Y140H; experiment: Broth microdilution drug susceptibility assay (MIC80), strain AD3Δ ScErg11 Y140H; assay type: cell-based, Saccharomyces cerevisiae; details: for MIC80: Saccharomyces cerevisiae, 48 h, 30 °C, pH 6.8, mean (± SEM), n = 3; for MIC80 / MIC80/Relative Amount of ScLDM6×His / fold-resistance based on the relative amount of recombinant enzyme compared with strain AD3Δ: strain Y140H; for MIC80/Relative Amount of ScLDM6×His / fold-resistance based on the relative amount of recombinant enzyme compared with strain AD3Δ: relative expression 0.74
Method: as §1, §2

[7] = wild-type (AD3Δ) ScLDM6×His, 2 µM enzyme, (± SEM), μM, read-out: [Azole]0.5
[8] = wild-type (AD3Δ) ScLDM6×His, (± SEM)
[9] = wild-type ScLDM6×His, supplement, 'in the 0.5 μM range'
[10] = wild-type enzyme, in the presence of 2 µM enzyme, read-out: IC50 from type II binding curves

SMILES	MIC80 [1] [µM]	MIC80/Relative Amount of ScLDM6×His [1] [µM]	Kd [2] [µM]	IC50 [3, 7] [µM]	ΔAmax [3, 8]	Hill number [3, 8]	Kd [3, 8] [µM]	Kd [3, 9] [µM]	IC50 [3, 10] [µM]	effect of Cdr1p inhibitor RC21v3 on azole susceptibility [4]	effect of Mdr1 inhibitor MCC1189 on azole susceptibility [5]	effect of Cdr1p inhibitor RC21v3 on azole susceptibility [5]	agarose diffusion susceptibility [5]	MIC80 [6] [µM]	MIC80/Relative Amount of ScLDM6×His [6] [µM]	fold-resistance based on the relative amount of recombinant enzyme compared with strain AD3Δ [6] [×]	further results
CCC(C)n1ncn(-c2ccc(N3CCN(c4ccc(OCC5COC(Cn6cncn6)(c6ccc(Cl)cc6Cl)O5)cc4)CC3)cc2)c1=O (centres unmarked) [ITC, itraconazole]	0.143	0.143	~0.5	0.6	0.08 (0.006)	1.61 (0.22)	0.43	~0.5	0.6 to 0.8	increased susceptibility	no effect on susceptibility	increased susceptibility	resistant	0.112	0.151	1.1	effect of Mdr1 inhibitor MCC1189 on azole susceptibility [4]: no effect on susceptibility; susceptibility compared with AD3Δ cells ([6]; cells overexpressing ScLDM6×His Y140H, not corrected for expression): slightly increased susceptibility
C[C@@H](c1ncncc1F)[C@](O)(Cn1cncn1)c1ccc(F)cc1F [VCZ, voriconazole]	0.0933	0.0933	~0.5	0.78	0.10 (0.004)	1.85 (0.23)	0.62	~0.5	0.6 to 0.8	did not alter the susceptibility	did not alter the susceptibility	did not alter the susceptibility	resistant	0.164	0.221	2.4	effect of Mdr1 inhibitor MCC1189 on azole susceptibility ([4]; SC5314, MCC1189 at 6 µM in the assay medium): did not alter the susceptibility; agarose diffusion susceptibility ([4]; SC5314, no efflux pump inhibitor): susceptible; resistance conferred, relative amount of recombinant ScLDM6×His taken into account ([6]; ScLDM6×His Y140H vs AD3Δ): 2.4 fold; MIC80 higher than strain AD3Δ ScErg11 ([6]; strain AD3Δ ScErg11 Y140H vs AD3Δ, not corrected for expression, p < 0.001): ~ 2 fold
